This is an account of results in patent US12419848B2, “Treatment of hyperinflammatory syndrome” (priority 2020, dated 2025).

A word on the pEC50: it is the negative decadic logarithm of the EC50, by convention in mol/L.

For one assay, the target named is P1 receptors. As to conditions: cited from earlier work.
Another assay addresses T1, P2X7R (Homo sapiens, UniProt Q99572).
T1 sequence (Q99572 1-595): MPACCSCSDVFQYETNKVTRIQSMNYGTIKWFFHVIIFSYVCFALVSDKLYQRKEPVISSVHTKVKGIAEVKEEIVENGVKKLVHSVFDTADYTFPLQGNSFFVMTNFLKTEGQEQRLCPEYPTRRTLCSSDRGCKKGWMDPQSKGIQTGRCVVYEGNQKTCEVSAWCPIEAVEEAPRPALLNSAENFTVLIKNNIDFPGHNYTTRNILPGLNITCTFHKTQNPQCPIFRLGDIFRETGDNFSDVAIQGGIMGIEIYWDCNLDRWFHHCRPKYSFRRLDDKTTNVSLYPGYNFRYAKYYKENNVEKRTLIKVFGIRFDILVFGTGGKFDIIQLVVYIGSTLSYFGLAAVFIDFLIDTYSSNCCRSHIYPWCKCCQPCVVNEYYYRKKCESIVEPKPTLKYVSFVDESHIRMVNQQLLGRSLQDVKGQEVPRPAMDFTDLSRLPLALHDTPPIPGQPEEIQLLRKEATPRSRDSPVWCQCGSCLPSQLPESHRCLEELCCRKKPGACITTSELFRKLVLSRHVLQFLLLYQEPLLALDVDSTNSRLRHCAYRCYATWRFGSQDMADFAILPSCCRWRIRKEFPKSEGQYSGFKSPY
As to conditions: read-out: EC50 to activate P2X7R; cited from earlier work.

Another assay concerns Alzheimer's disease. Description: Example 19: Alzheimer's dementia. As to conditions: sublingual 4×100 mg/d, after 3 months; before 15. In kind it is in vivo, human.
For a further assay, the system named is diabetic polyneuropathy. Description: Example 23: diabetic polyneuropathy. Format: in vivo, human.
The test system of another assay is myasthenia gravis. Description: Example 24: myasthenia gravis. As to conditions: sublingual 4×100 mg/d. Format: in vivo, human. The procedure: A person was diagnosed having myasthenia gravis. They suffered from muscle weakness of the arms and hand after physical activity. The diagnosis was confirmed with EMG and positive test for antibodies against acetylcholine receptor (AChR). They were treated with oral anticholinesterase drug (mestinon) 4×60 mg/d. […] The treatment was continued for 2 weeks.

The next assay deals with COPD. Description: Example 25: COPD. As to conditions: sublingual 4×100 mg/d, after 3 months; before 60%. Format: in vivo, human.
The next assay has as its system ulcerative colitis. In words: Example 27: ulcerative colitis. Conditions: sublingual 4×100 mg/d, after 3 days. Format: in vivo, human.
Assay [1] deals with inflammatory bowel disease with perianal fistulae. In words: Example 28: inflammatory bowel disease with perianal fistulae. In kind it is in vivo. Conditions: dog, 4×100 mg/d applied into the largest fistula, after 1 week.
The subject of the next assay is ischaemic cardiomyopathy. In words: Example 31: ischaemic cardiomyopathy. Format: in vivo, human.
In another assay the test system is acute lumbago. Description: Example 32: acute lumbago. As to conditions: sublingual 4×100 mg/d, after 30 minutes. In kind it is in vivo, human.
The test system of the next assay is SLE peritonitis. Description: Example 33: systemic lupus erythematosus. In kind it is in vivo, human.
For assay [2], the system named is idiopathic Parkinson's disease. Conditions: sublingual 4×100 mg/d, after 1 month.

Structures are written as SMILES. pEC50: −log10 of the molar value.

As to `Nc1ncnc2c1ncn2[C@@H]1O[C@H](CO)[C@@H](O)[C@H]1O` [adenosine], the “EC50 (extracellular concentration for half maximal effect)” value on P1 receptors was “nanomolar range”.

As to `Nc1ncnc2c1ncn2[C@@H]1O[C@H](COP(=O)(O)OP(=O)(O)OP(=O)(O)O)[C@@H](O)[C@H]1O` [ATP], the pEC50 on P2X7R was under 3.00.

Consider `CCN(CC)CC(=O)Nc1c(C)cccc1C` [lidocaine base, lidocaine], for which, in the assay on Alzheimer's disease, the “MMSE Test total score” value amounted to 23. The “muscle strength of hands” value in the assay with diabetic polyneuropathy (after 3 months) is “improved significantly”. The “tingling feelings in hands and feet” value with diabetic polyneuropathy (sublingual 4×100 mg/d, after a few days) is “disappeared completely”. For the same compound, in the assay with myasthenia gravis, the “influenza A viral infection symptoms” value is listed as “disappeared almost completely”; the “time to significant improvement of muscle weakness of arms and hand” value is at most 4 h. Further, the FEV1 in the assay with COPD was found to be 84%. Further, the symptoms result in the assay with ulcerative colitis was “completely disappeared”. In assay [1], the “oozing opaque fluid secretion and bad odour” value is given as “had disappeared”. Besides, in the assay on ischaemic cardiomyopathy (after 3 weeks), the chest pain episodes result was “significantly diminished”. For the same compound, the “cardiac ejection fraction (transthoracic echocardiographic)” value in the assay on ischaemic cardiomyopathy (sublingual 4×100 mg/d, after 3 months, before 31%) is 42%. Besides, the symptoms disappeared with acute lumbago was determined as 95%. In addition, in the assay on SLE peritonitis (after 2 weeks), the abdominal distension entry was “disappeared completely”. In the assay with SLE peritonitis (sublingual 4×100 mg/d), the clinical symptoms entry was “disappeared in the course of 6 days”. Moreover, in assay [2], the tendency to fall entry is listed as “gradually improved” and the tremor result is reported as “almost disappeared”.
